Where a name gives a salt, the structure may show the parent alone. Read-outs that look alike come from different tables or passages of the source.
Assays:
human ETB receptor = molecular target: T1, human ETB receptor (Homo sapiens, UniProt P24530); test: ERBA-B: [125I]-ET-1 binding, recombinant human ETB receptor expressed in CHO-K1 cells; conditions: human cloned ETB receptor, read-out: ERBA-B IC50, human cloned receptor data
T1 construct: expressed in transfected cells; host or cells: CHO-K1 cells, pRc-CMW (so in the source) expression vector, electroporation; membranes used
T1 sequence (P24530 27-442): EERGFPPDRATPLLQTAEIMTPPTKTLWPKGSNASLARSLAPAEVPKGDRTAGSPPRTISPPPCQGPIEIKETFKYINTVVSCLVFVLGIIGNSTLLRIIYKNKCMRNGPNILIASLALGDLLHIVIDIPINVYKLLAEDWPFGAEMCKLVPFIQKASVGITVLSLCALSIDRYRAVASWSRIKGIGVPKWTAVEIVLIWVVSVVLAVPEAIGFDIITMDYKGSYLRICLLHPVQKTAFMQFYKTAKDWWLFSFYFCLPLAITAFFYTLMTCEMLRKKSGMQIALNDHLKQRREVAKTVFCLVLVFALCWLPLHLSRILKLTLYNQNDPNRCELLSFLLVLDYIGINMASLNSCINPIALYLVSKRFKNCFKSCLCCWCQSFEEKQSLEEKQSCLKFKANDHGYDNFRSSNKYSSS

ETA [1] = molecular target: T2, ETA (Oryctolagus cuniculus, UniProt A5A8K3); test: VERA-A: antagonism of ET-1 stimulated vasoconstriction in the rabbit femoral artery (ETA); type: cell-based; conditions: ET-1, rabbit femoral artery; read-out: VERA-A pA2 (converted)
T2 sequence (A5A8K3 21-427): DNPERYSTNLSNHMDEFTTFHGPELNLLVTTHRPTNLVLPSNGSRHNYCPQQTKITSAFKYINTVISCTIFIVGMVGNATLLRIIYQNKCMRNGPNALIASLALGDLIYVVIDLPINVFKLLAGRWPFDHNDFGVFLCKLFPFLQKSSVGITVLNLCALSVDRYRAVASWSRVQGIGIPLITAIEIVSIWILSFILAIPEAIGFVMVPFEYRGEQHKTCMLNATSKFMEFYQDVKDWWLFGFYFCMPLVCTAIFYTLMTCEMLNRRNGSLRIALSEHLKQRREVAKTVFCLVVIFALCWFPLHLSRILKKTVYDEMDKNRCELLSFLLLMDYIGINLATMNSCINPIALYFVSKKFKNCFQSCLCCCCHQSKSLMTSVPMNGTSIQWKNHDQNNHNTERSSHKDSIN
Procedure: Male New Zealand rabbits were killed by cervical dislocation and exsanguination. Femoral and pulmonary arteries were isolated, cleaned of connective tissue, and cut into 4-mm rings. The endothelium was denuded by placing the rings over hypodermic tubing (32 gauge for femoral rings and 28 gauge for pulmonary rings, Small Parts, Inc, Miami, Fla.) and gently rolling them. […] Resting tension was adjusted to 3.0 g for femoral and 4.0 g pulmonary arteries; the rings were left for 90 minutes to equilibrate.

ETA [2] = molecular target: T2, ETA; conditions: ERBA-A IC50, [125I]-ET-1, rabbit renal artery vascular smooth muscle cells
ETA [3] = molecular target: T2, ETA
ETB = molecular target: T3, ETB (Rattus norvegicus, UniProt P21451)
T3 sequence (P21451 27-442): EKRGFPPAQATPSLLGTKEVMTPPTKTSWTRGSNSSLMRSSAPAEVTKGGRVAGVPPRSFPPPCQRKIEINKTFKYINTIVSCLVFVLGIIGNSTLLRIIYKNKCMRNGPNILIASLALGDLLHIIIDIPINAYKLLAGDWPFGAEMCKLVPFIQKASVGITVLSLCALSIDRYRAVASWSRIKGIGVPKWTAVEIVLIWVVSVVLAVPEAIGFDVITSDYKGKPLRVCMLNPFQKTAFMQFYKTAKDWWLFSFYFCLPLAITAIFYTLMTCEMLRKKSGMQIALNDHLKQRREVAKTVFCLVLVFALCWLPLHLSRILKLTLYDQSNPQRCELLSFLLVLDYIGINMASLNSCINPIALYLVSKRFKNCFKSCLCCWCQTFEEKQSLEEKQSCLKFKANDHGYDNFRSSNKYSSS

COc1ccc(C2(O)OC(=O)C(c3ccc4c(c3)OCO4)=C2Cc2ccc(NC(C)=O)cc2)cc1 (stereo not drawn) [Example 80, N-{4-[4-Benzo[1,3]dioxol-5-yl-2-hydroxy-2-(4-methoxyphenyl)-5-oxo-2,5-dihydro-furan-3-ylmethyl]-phenyl}-acetamide]
IC50 (human ETB receptor): 880 nM
Kb (ETA [1]): 63.1 nM
IC50 (ETA [2]): 1.4 nM

COc1ccc(C2(O)OC(=O)C(c3ccc4c(c3)OCO4)=C2Cc2ccc(OC(C)C)cc2)cc1 (stereo not drawn) [Example 84, 3-Benzo[1,3]dioxol-5-yl-5-hydroxy-4-(isopropoxybenzyl)-5-(4-methoxyphenyl)-5H-furan-2-one]
IC50 (human ETB receptor): 1400 nM
Kb (ETA [1]): 158 nM
IC50 (ETA [2]): 3.3 nM

COc1ccc(C2(O)OC(=O)C(c3ccc4c(c3)OCO4)=C2Cc2cccc(C)c2)cc1 (stereo not drawn) [Example 90, 3-Benzo[1,3]dioxol-5-yl-5-hydroxy-5-(4-methoxyphenyl)-4-(3-methylbenzyl)-5H -furan-2-one]
IC50 (human ETB receptor): 3500 nM
IC50 (ETA [2]): 20 nM
IC50 (ETA [3]): 88 nM

COc1ccc(C2(O)OC(=O)C(c3ccc4c(c3)OCO4)=C2Cc2ccc(OC)c(Cl)c2)cc1 (stereo not drawn) [Example 92, 3-Benzo[1,3]dioxol-5-yl-4-(3-chloro-4-methoxybenzyl)-5-hydroxy-5-(4-methoxyphenyl)-5H-furan-2-one]
IC50 (human ETB receptor): 1400 nM
Kb (ETA [1]): 251 nM
IC50 (ETA [2]): 4 nM

CCCCOc1ccc(CC2=C(c3ccc4c(c3)OCO4)C(=O)OC2(O)c2ccc(OC)cc2)cc1 (stereo not drawn) [Example 93, 3-Benzo[1,3]dioxol-5-yl-4-(4-butoxybenzyl)-5-hydroxy-5-(4-methoxyphenyl)-5H -furan-2-one]
IC50 (human ETB receptor): 220 nM
Kb (ETA [1]): 1000 nM
IC50 (ETA [2]): 5.2 nM

COc1ccc(CC2=C(c3cc(OC)cc(OC)c3)C(=O)OC2(O)c2ccc(OC)cc2)cc1 (stereo not drawn) [Example 131, 3-(3,5-Dimethoxyphenyl)-5-hydroxy-4-(4-methoxybenzyl)-5-(4-methoxyphenyl)-5H-furan-2-one]
IC50 (human ETB receptor): 1350 nM
Kb (ETA [1]): 501 nM
IC50 (ETA [2]): 15 nM

C=CCOc1cc(CC2=C(c3cc(OC)cc(OC)c3)C(=O)OC2(O)c2ccc(OC)cc2)ccc1OC (stereo not drawn) [Example 135, 4-(3-Allyloxy-4-methoxybenzyl)-3-(3,5-dimethoxyphenyl)-5-hydroxy-5-(4-methoxyphenyl)-5H-furan-2-one]
Kb (ETA [1]): 126 nM
IC50 (ETB): 330 nM
IC50 (ETA [2]): 9 nM

COc1ccc(C2(O)OC(=O)C(c3ccc4c(c3)OCO4)=C2Cc2cccnc2)cc1 (stereo not drawn) [Example 160, 3-Benzo[1,3]dioxol-5-yl-5-hydroxy-5-(4-methoxyphenyl)-4-pyridin-3-ylmethyl-5H-furan-2-one]
IC50 (ETA [2]): 350 nM
IC50 (ETA [3]): 55 nM

C=CCOc1cc(CC2=C(c3ccc4c(c3)OCO4)C(=O)OC2(O)c2ccc(OC)cc2)ccc1OC (stereo not drawn) [Example 163, 4-(3-Allyloxy-4-methoxybenzyl)-3-benzo[1,3]dioxol-5-yl-5-hydroxy-5-(4-methoxyphenyl)-5H-furan-2-one]
IC50 (human ETB receptor): 880 nM
Kb (ETA [1]): 126 nM
IC50 (ETA [2]): 20 nM

COc1ccc(C2(O)OC(=O)C(c3ccc4c(c3)OCO4)=C2Cc2ccc(S(C)(=O)=O)cc2)cc1 (stereo not drawn) [Example 237, 3-Benzo[1,3]dioxol-5-yl-5-hydroxy-4-(4-methanesulfonylbenzyl)-5-(4-methoxyphenyl)-5H-furan-2-one]
IC50 (human ETB receptor): > 2500 nM
Kb (ETA [1]): 631 nM
IC50 (ETA [2]): 11 nM

COc1ccc(C2(O)OC(=O)C(c3ccc4c(c3)OCO4)=C2Cc2ccccc2)c(OC)c1 (stereo not drawn) [Example 241, 3-Benzo[1,3]dioxol-5-yl-4-benzyl-5-(2,4-dimethoxyphenyl)-5-hydroxy-5H-furan-2-one]
Kb (ETA [1]): 631 nM
IC50 (ETA [2]): 35 nM

COc1ccc(C2(O)OC(=O)C(c3ccc4c(c3)OCO4)=C2Cc2ccc(OC)c(C)c2C)cc1 (stereo not drawn) [Example 254, 3-Benzo[1,3]dioxol-5-yl-5-hydroxy-4-(4-methoxy-2,3-dimethylbenzyl)-5-(4-methoxyphenyl)-5H-furan-2-one]
IC50 (human ETB receptor): 2900 nM
Kb (ETA [1]): 200 nM
IC50 (ETA [2]): 17 nM

COc1ccc(C2(O)OC(=O)C(c3ccc4c(c3)OCO4)=C2Cc2cc(OC)c(OC)c(OC)c2)cc1 (stereo not drawn) [Example 281, 3-benzo[1,3]dioxol-5-yl-5-hydroxy-5-(4-methoxyphenyl)-4-(3,4,5-trimethoxybenzyl)-5H-furan-2-one]
IC50 (ETA [2]): 0.6 nM
IC50 (ETA [3]): 7700 nM

COc1ccc(C2(O)OC(=O)C(c3cc(OC)c4c(c3)OCO4)=C2Cc2ccccc2)cc1 (stereo not drawn) [Example 301, 4-Benzyl-5-hydroxy-3-(7-methoxy-benzo[1,3]dioxol-5-yl)-5(4-methoxy-phenyl)-5H-furan-2-one]
IC50 (human ETB receptor): 660 nM
Kb (ETA [1]): 100 nM
IC50 (ETA [2]): 5.6 nM

COc1ccc(C(=O)/C(Cc2ccccc2)=C(\C(=O)O)c2ccc3c(c2)OCO3)cc1 [Example 351, Sodium 2-benzo[1,3]dioxol-5-yl-3-benzyl-4-(4-methoxyphenyl)-4-oxobut-2-enoate]
IC50 (human ETB receptor): > 250 nM
Kb (ETA [1]): 631 nM
IC50 (ETA [2]): 16 nM

COc1ccc(C(=O)/C(Cc2ccc(OC(C)C)cc2)=C(\C(=O)O)c2ccc3c(c2)OCO3)cc1 [Example 352, 1,3-Benzodioxol-5-acetic acid, α-[2-(4-methoxyphenyl)-1-[[4-(1-methylethoxy)phenyl]methyl]-2-oxoethylene]-, (Z)-, choline salt]
IC50 (human ETB receptor): 1250 nM
Kb (ETA [1]): 63.1 nM
IC50 (ETA [2]): 5 nM

COc1ccc(C2(O)OC(=O)C(c3cc(OC)c4c(c3)OCO4)=C2Cc2cc(OC)c(OC)c(OC)c2)cc1 (stereo not drawn) [Example 356, 5-Hydroxy-3-(7-methoxy-benzo[1,3]dioxol-5-yl)-5-(4-methoxy-phenyl)-4-(3,4,5-trimethoxy-benzyl)-5H-furan-2-one]
IC50 (human ETB receptor): 340 nM
Kb (ETA [1]): 20 nM
IC50 (ETA [2]): 0.25 nM

COc1ccc(C2(O)OC(=O)C(c3cc(OC)c4c(c3)OCO4)=C2Cc2ccccc2)cc1C (stereo not drawn) [Example 360, 4-Benzyl-5-hydroxy-3-(7-methoxy-benzo[1,3]dioxol-5-yl)-5-(4-methoxy-3-methyl-phenyl)-5H-furan-2-one]
IC50 (human ETB receptor): 1350 nM
Kb (ETA [1]): 100 nM
IC50 (ETA [2]): 9.9 nM

COc1ccc(C2(O)OC(=O)C(c3cc(OC)c4c(c3)OCO4)=C2Cc2cc(OC)c(OC)c(OC)c2)cc1C (stereo not drawn) [Example 361, 5-Hydroxy-3-(7-methoxy-benzo[1,3]dioxol-5-yl)-5-(4-methoxy-3-methyl-phenyl) -4-(3,4,5-trimethoxy-benzyl)-5H-furan-2-one]
IC50 (human ETB receptor): 220 nM
Kb (ETA [1]): 39.8 nM
IC50 (ETA [2]): 2 nM

COc1cc(OC)cc(C2=C(Cc3cc(OC)c(OC)c(OC)c3)C(O)(c3ccc(OC)c(C)c3)OC2=O)c1 (stereo not drawn) [Example 382, 3-(3,5-Dimethoxy-phenyl)-5-hydroxy-5-(4-methoxy-3-methyl-phenyl)-4-(3,4,5-trimethoxy-benzyl)-5H-furan-2-one]
IC50 (human ETB receptor): > 250 nM
Kb (ETA [1]): 158 nM
IC50 (ETA [2]): 0.9 nM

COc1cc(OC)cc(/C(C(=O)O)=C(\Cc2ccc(NC(C)=O)cc2)C(=O)c2ccc(OC)c(C)c2)c1 [Example 386, Potassium 3-(4-Acetylamino-benzyl)-2-(3,5-dimethoxyphenyl)-4-(4-methoxy-3-methyl-phenyl)-4-oxo-but-2-enoate]
IC50 (human ETB receptor): 2100 nM
Kb (ETA [1]): 126 nM
IC50 (ETA [2]): 5 nM

COC(=O)c1cccc(C/C(C(=O)c2ccc(OC)cc2)=C(/C(=O)O)c2ccc3c(c2)OCO3)c1 [Example 405, 1,3-Benzodioxol-5-acetic acid, α-[1-[[3-(methoxycarbonyl)phenyl]methyl]-2-(4-methoxyphenyl)-2-oxoethylene]-, monopotassium salt]
IC50 (human ETB receptor): 2700 nM
Kb (ETA [1]): 251 nM
IC50 (ETA [2]): 7.4 nM
